Results taken from patent US10555923B2, “Method for treating paroxysmal nocturnal hemoglobinuria” (ENZYCHEM LIFESCIENCES CORPORATION, priority 2015, dated 2020).

Legend:
C3 [1] = test: In vitro inhibition of C3 expression in HMC-1 cells (IL-4/TNF-α induced, RT-PCR); assay type: cell-based, human; conditions: IL-4 (5 ng) and TNF-α (10 ng), PLAG 0.1 and 1 μg/mL
Method: A blood cell line, HMC-1 (human mast cell, American Type Culture Collection, ATCC, Rockville, Md.) is incubated and maintained at 37° C. under 5% CO2 humid conditions. The medium is IMDM (Life Technologies, Karlsruhe, Germany) containing 10% Fetal Calf Serum (FCS, HyClone, Logan, Utah), 2 mM […], 100 μg/ml penicillin, 100 μg/ml streptomycin (Life Technologies). The cultured HMC-1 cells (1×10^6 cell/ml) are pretreated with 0.1 and 1 μg/mL concentrations of PLAG, followed by treatment with IL-4 (5 ng) and/or TNF-α (10 ng) to induce cellular activities.
The expressed C3 and its mRNA level changes are observed by using RT-PCR (Reverse Transcriptase Polymerase Chain Reaction). The RT-PCR is carried out as follows: the total RNA is separated by the standard protocol and cDNA is synthesized using AccuScript High Fidelity 1st Strand cDNA Synthesis Kit (Stratagene). Two-step RT-PCR reaction is conducted using Oligo-dT primer and reverse transcriptase, pair of primers and Taq polymerase (Takara, Shiga, Japan). […] The product of PCR is separated using 1.5% agarose gel, dyed with ethidium bromide (EtBr), and visualized with Gel Doc 2000 UV trans-illuminator (Bio-Rad Laboratories, Hercules, Calif., USA), and the experimental data is analyzed using Quantity One software (Bio-Rad Laboratories).

C3 [2] = test: C3 mRNA expression in HepG2 cell line (RT-PCR); assay type: cell-based, human
Method: A liver cell line, HepG2 (American Type Culture Collection, ATCC, Rockville, Md.), is incubated and maintained at 37° C., 5% CO2 humid atmosphere in DMEM medium. When HepG2 cells, which are known to produce complement in culture, are treated with PLAG, the activity of complement is reduced effectively, as confirmed by RT-PCR of mRNA. In the RT-PCR, 5×10^5 HepG2 cells/ml are distributed into 12 well plates and induced C3 for 12 hours with 10% FCS. Then PLAG is added and further cultured for 2 hours. Cells are harvested and mRNA is isolated and RT-PCR is carried out with specific primers for C3; GAPDH is used as an internal control.

STAT6 [3] = target: T1, STAT6 (Homo sapiens, UniProt P42226); test: Dephosphorylation of STAT6 in IL-4 stimulated cell lysates (Western blot); assay type: cell-based; conditions: U937, Jurkat and A549 cells; PLAG 0.01 to 10 μg/ml; 10 ng/ml IL-4; 15 min after stimulation
T1 construct: using anti-phosphorylated STAT6 in U937, A549, and Jurkat cell lysates treated with PLAG; endogenous in cells; host or cells: U937, A549, Jurkat
T1 sequence (P42226 1-847): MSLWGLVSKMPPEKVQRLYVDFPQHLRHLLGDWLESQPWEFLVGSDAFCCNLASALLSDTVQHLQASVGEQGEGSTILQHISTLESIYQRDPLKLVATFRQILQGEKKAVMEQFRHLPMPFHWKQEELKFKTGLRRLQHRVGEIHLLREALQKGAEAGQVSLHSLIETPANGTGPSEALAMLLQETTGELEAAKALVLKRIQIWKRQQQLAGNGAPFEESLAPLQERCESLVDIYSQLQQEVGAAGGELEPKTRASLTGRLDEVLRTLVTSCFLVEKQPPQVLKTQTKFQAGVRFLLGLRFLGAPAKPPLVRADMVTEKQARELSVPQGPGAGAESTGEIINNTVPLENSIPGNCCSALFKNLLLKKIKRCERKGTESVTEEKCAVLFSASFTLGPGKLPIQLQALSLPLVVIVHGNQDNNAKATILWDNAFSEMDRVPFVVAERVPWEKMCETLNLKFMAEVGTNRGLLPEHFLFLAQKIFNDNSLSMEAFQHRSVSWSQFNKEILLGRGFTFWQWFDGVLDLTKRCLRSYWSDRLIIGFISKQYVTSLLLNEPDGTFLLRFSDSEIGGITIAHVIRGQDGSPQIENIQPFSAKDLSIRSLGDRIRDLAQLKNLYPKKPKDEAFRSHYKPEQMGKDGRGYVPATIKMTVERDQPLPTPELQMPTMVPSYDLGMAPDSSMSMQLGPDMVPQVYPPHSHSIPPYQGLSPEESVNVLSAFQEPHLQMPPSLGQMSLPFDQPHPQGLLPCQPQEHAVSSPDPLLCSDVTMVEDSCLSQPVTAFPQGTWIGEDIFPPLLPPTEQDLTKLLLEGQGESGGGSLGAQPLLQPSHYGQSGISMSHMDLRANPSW
Method: Dephosphorylation of STAT6 is examined using anti-phosphorylated STAT6 in U937, A549, and Jurkat cell lysates treated with PLAG at a concentration from 0.01 to 10 μg/ml. Phosphorylation of STAT6 is induced by treatment with 10 ng/ml of IL-4. Dephosphorylation of STAT1 is examined in the U937 cell lysate treated with PLAG (0.01 to 10 μg/ml). Phosphorylation of STAT1 is induced by 10 ng of IFN-γ treatment. Dephosphorylation of STAT1 and STAT6 is examined at 15 min after stimulation with IFN-γ and IL-4 respectively, in the PLAG pretreated cells. […] The transcriptional activity of STAT6 is decreased by the dephosphorylation of STAT6. […] No effect of PLAG on STAT1 phosphorylation is observed.

STAT6 [4] = test: Reporter (luciferase) assay for STAT6 transcriptional activity in HepG2 cells; assay type: cell-based, human; conditions: 10 ng IL-4, PLAG 0.01-10 μg/ml, 12 hour incubation
Method: (§1) By using STAT6 inhibitor (S6I), it is confirmed that the reduction of complement 3 in HepG2 cells (human hepatocyte cell line) is regulated by STAT6. […] It is also confirmed that PLAG has selective efficacy on STAT6 over STAT1. FIG. 1 presents graphs showing STAT1 and STAT6 transcriptional activity in the PLAG treated HepG2 cells. NC refers to the unstimulated control cell. For the STAT1 assay, gene transfected HepG2 (human hepatocyte cell line) is treated with 10 ng of IFN-γ and serially diluted PLAG is added (0.01 μg/ml, 0.1 μg/ml, 1 μg/ml, and 10 μg/ml as shown) to see its effect on gene expression in the stimulated cell. For the STAT6 assay, gene transfected HepG2 cells are treated with 10 ng of IL-4 and again serially diluted PLAG is added (0.01 μg/ml, 0.1 μg/ml, 1 μg/ml, and 10 μg/ml as shown) to see its effect on gene expression in the stimulated cell. The assay is carried out following a 12 hour incubation of treated cells.

STAT1 = test: Reporter assay for STAT1 transcriptional activity in HepG2 cells; assay type: cell-based, human; conditions: 10 ng IFN-γ, PLAG 0.01-10 μg/ml, 12 hour incubation
Method: as §1

C3 [5] = test: C3 inhibition in HMC-1 cells (ELISA); assay type: cell-based, human; conditions: PLAG 1, 10 and 100 μg/mL for 2 hours, activated 72 hours with 10% FBS
Method: In a separate experiment, human mast cells (HMC-1, 1×10^5 cell/ml) are treated with PLAG of various concentrations (1, 10 and 100 μg/mL) for 2 hours. The cells are activated for 72 hours with 10% FBS (Fetal bovine serum) containing IMDM. The decrease of C3 is confirmed by ELISA analysis of the expressed protein.

C3 [6] = test: C3 in culture supernatant of HepG2 cells (ELISA); assay type: cell-based, human; conditions: PLAG 1 to 100 μg/ml or S6I 10 and 100 μg/ml, IL-4 and TNF-α 1 hr, incubated 18 hr
Method: (§2) The incubated HepG2 cell lines are treated with PLAG (1˜100 μg/ml), followed by IL-4 and TNF-α, reacted for 1 hour, incubated for 18 hours at 37° C. and the supernatant is isolated. Quantitation of the amount of C3 in the cellular culture medium (supernatant) from HepG2 cells is performed by ELISA using a commercially available monoclonal antibody (mAb, R&D Systems) and the manufacture's protocol; the results are presented in FIGS. 3A-3C. C3 is expressed spontaneously under in vitro culture conditions using 10% FCS added to HepG2 cells and incubated for 12 hr. The cells are treated with PLAG from 1 to 100 μg/ml (FIG. 3A, FIG. 3B) or 10 and 100 μg/ml of S6I (FIG. 3C), reacted with IL-4 and TNF-α for 1 hr and then incubated for 18 hr at 37° C. Cellular viability is confirmed using the WST-1 assay (FIG. 3A).

HepG2 cells = test: WST-1 cell viability assay in HepG2 cells; assay type: cell-based; conditions: PLAG 1 to 100 μg/ml
Method: as §2

[7] = Colony forming units (CFUs) in spleen assay in heavily irradiated mice; assay type: in vivo; conditions: 50 mg/kg/d i.p. or p.o.
Method: In order to determine the in vivo effect of PLAG on the recovery of hematopoiesis, a CFUs assay is performed in heavily irradiated mice.

complement 3 = test: Complement 3 activation by chemotherapeutic agents in mouse model; assay type: in vivo; conditions: mice; PLAG 50 mg/kg daily 3 weeks with Gemcitabine, Cyclosphosphamide or Tamoxifen
Method: The effect of PLAG for treatment of chemotherapy-induced thrombocytopenia (CIT) is evaluated in an animal model. Anti-cancer agents (Gemcitabine 50 mg/kg, Cyclosphosphamide 100 mg/kg, or Tamoxifen 50 mg/kg) are dosed daily for 3 weeks; PLAG is also administered at 50 mg/kg daily for 3 weeks.
It is believed that the leukopenia and thrombocytopenia of these agents and other chemotherapeutic agents may be due at least in part to a specific complement-mediated toxicity. This is seen in FIG. 5.

[8] = tested on: hematopoietic stem cells and megakaryocytes; conditions: reported in WO 99/26640; cited from earlier work

Row | Structure (SMILES) | expression of C3 (C3 [1]) | inhibition of C3 expression (mRNA, RT-PCR) (C3 [2]; S6I 10 and 100 μg/ml, compared with PLAG 1 and 10 μg/ml) | IL-4 treatment induced STAT6 phosphorylation (STAT6 [3]) | STAT6 transcriptional activity (expression) (STAT6 [4]) | STAT1 transcriptional activity (expression) (STAT1) | decrease of C3 (ELISA of expressed protein) (C3 [5]) | inhibition of C3 expression (mRNA, RT-PCR) (C3 [2]; PLAG 1 μg/ml, 2 hours) | inhibition of C3 expression (mRNA, RT-PCR) (C3 [2]; PLAG 10 μg/ml, 2 hours) | expression of C3 (amount in supernatant, ELISA) (C3 [6]) | cellular propagation and death (WST-1 viability) (HepG2 cells) | number of splenic nodules, primitive progenitor cells and megakaryocytes [7] | blockage of chemotherapy-induced complement 3 activation (complement 3) | growth-stimulating activities of hematopoietic stem cells and megakaryocytes [8]
1 | NC(=O)c1cnc(NCCc2ccc(O)c(Cl)c2)nc1NCc1ccccc1 [S6I, reference compound] | suppresses expression of C3 | comparable | – | – | – | – | – | – | – | – | – | – | –
2 | CCCCC/C=C\C/C=C\CCCCCCCC(=O)OC(COC(C)=O)COC(=O)CCCCCCCCCCCCCCC (racemic) [PLAG, 1-palmitoyl-2-linoleoyl-3-acetylglycerol] | suppressed by PLAG on a concentration dependent basis | – | inhibited with increasing PLAG concentrations | significant, dose-dependent effect | no effect | proportional to the concentration of PLAG | somewhat | entirely | decreased dose-dependently | does not affect the cellular propagation and death | marked increase | largely blocked | have growth-stimulating activities
